The values below come from publication PMC9605374 (Marine Drugs, 2022).

Where only a bound is given, the exact number is not on record here.

The subject of one data set is PC-3. Set-up: method as in PMID 27355960. Particulars: cited from earlier work.
For another data set, the system named is splenocytes. Set-up: method as in PMID 27355960. Particulars: cited from earlier work.
Data set [1] concerns various pathogenic bacteria. Set-up: method as in PMID 26039736. The settings on record: cited from earlier work.
Data set [2] relates to mouse lymphoma cells L5178Y. Set-up: method as in doi:10.1016/j.phytol.2014.12.010. The settings on record: cited from earlier work.
The subject of a further data set is Artemia salina. The arrangement: method as in PMID 26039736. Particulars: cited from earlier work.
The subject of a further data set is p38 in 22Rv1 cells. The experiment in a line: Western blotting, MAPK activation. It is filed as cell-based, human. The settings on record: 22Rv1, 1 µM or 10 µM, 2 h. Here is the method:
(§1) We examined several time points, specifically, 15 min, 2 h, and 48 h (Figure 6).
(§2) Figure 6 Validation of kinome analysis data. 22Rv1 cells were treated with 1 µM or 10 µM of NB for the indicated time. The protein expression was analyzed by Western blotting using total protein load equal to 30 µg/slot. α-Tubulin was used as a loading control.
(§3) The Western blot assay was executed as previously described: 1 × 10^6 cells were seeded in Petri dishes (ø 6 cm, 5 mL/dish) and incubated overnight. On the next day, the cells were treated with the compounds in fresh culture media (5 mL/dish) for the indicated time. Next, cells were harvested with a cell scraper and lysed in lysis buffer including protease and phosphatase inhibitors cocktail (Roche, Mannheim, Germany). Cell debris were removed from the protein lysates via centrifugation. Afterwards, the cell-free protein mixtures were separated in gradient ready-made Mini-PROTEAN® TGX Stain-Free^TM gels (Bio-Rad, Hercules, CA, USA) using SDS-PAGE (sodium dodecylsulfate polyacrylamide gel electrophoresis). Then, the proteins were blotted onto ø 0.2 µm pore PVDF membrane. The membrane was blocked and consequently treated with primary and secondary antibodies for protein detection. The signals were detected using the ECL chemiluminescence system (Thermo Scientific, Rockford, IL, USA).
For orientation: A western blot detects proteins with antibodies after separation by electrophoresis.

A further data set deals with ERK1/2 in 22Rv1 cells. Put plainly: Western blotting, MAPK activation. The settings on record: 22Rv1, 1 µM or 10 µM. The class given is cell-based, human. As for the experimental part: as §1, §2, §3
In another data set the test system is JNK1/2 in 22Rv1 cells. Put plainly: Western blotting, MAPK activation. The class given is cell-based, human. The settings on record: 22Rv1, 1 µM or 10 µM. As for the experimental part: as §1, §2, §3
The test system of a further data set is PC3. Put plainly: Colony formation assay. It is filed as cell-based, human. Particulars: PC3, 48 h treatment then 14 days, nanomolar concentrations. Here is the method:
(§4) Next, we investigated the effect of NB on the ability of cancer cells to form colonies from single cells using a colony formation assay and a preplating mode. […] However, this speculation awaits further confirmation in vivo.
(§5) Figure 3 Colony formation assay. The human cancer cells were seeded in 6-well plates and treated for 48 h with the indicated concentrations of NB. Then, the media was exchanged, and the plates were incubated for 14 days, which was followed by fixation, staining, and counting. Number of replicates n = 3. Statistical significance: * p < 0.05 (ANOVA).

The next data set relates to VCaP. Put plainly: Colony formation assay. It is filed as cell-based, human. The settings on record: 48 h treatment then 14 days, nanomolar concentrations. Here is the method: as §4, §5
A further data set concerns 22Rv1. The experiment in a line: Colony formation assay. The class given is cell-based, human. The settings on record: 22Rv1, 48 h treatment then 14 days, nanomolar concentrations. Here is the method:
as §4, §5

Another data set deals with PC3-DR cells. The experiment in a line: MTT assay with or without tariquidar pretreatment. The settings on record: 48 h, tariquidar 50 nM 30 min pretreatment. It is filed as cell-based, human. Here is the method: Number of replicates n = 3. […] Viability was measured using an MTT assay. Number of replicates n = 3.
As a next step, we investigated how NB interacts with p-gp. P-gp activity can be reduced in two distinct ways: (i) competitive inhibition through direct binding to the active pocket as the ligand itself; and (ii) allosteric/noncompetitive inhibition reducing the activity of a protein through binding to allosteric/regulatory sites or other means. […] Therefore, docetaxel binds to p-gp (while being excreted from the cell), competitively inhibiting p-gp-mediated calcein-AM excretion, which leads to calcein accumulation, resulting in more intense green fluoresce. To elucidate the mechanism of p-gp inhibition by NB (competitive vs. allosteric/noncompetitive inhibition), we co-treated PC3-DR cells with tariquidar (TQD), a selective noncompetitive p-gp inhibitor and NB, and examined the effect on cellular viability (Figure 8C). […]
The MTT assay was used to monitor the effect of the drugs on cell viability in terms of metabolic activity, as previously reported. […] Finally, 50 μL/well of DMSO were added to solve the formed formazan crystals produced by the metabolic active cells and Infinite F200PRO reader (TECAN, Männedorf, Switzerland) was used to measure the cell viability. […]
Background: Formazan colour is commonly taken as a measure of viable cells.

For data set [3], the system named is panel of 14 human cancer cell lines and one prostate cancer cell line DU145. Set-up: method as in PMID 26039736. The settings on record: panel of 14 human cancer cell lines and DU145, no significant anticancer activity; cited from earlier work.
Details of data set [4]: method as in PMID 27355960. The settings on record: no hemolytic activity; cited from earlier work.

Usually IC50 stands for the concentration that inhibits the measured activity by half.

As to `COc1ccc(C2SSC34CC5(O)C(Cl)C=CC(O)C5ON3C(=O)C2N(C)C4=O)c(O)c1OC` (stereo not drawn) [NB, N-methylpretrichodermamide B], the IC50 is 5.11 µM in the data set on PC-3, 2 µM in data set [2], above 10 µM in data set [3] and at least 100 µM in [4]. Besides, the “ID50, cytotoxic activity in splenocytes” value in the data set on splenocytes was 62.1 µM. In addition, the MIC in data set [1] is listed as 8–32 µm/mL. Further, in the data set with Artemia salina, the LD50 was 4.8 µM. The “activation of p38” value with p38 in 22Rv1 cells is on record as “activation of p38”. Also, in the data set with ERK1/2 in 22Rv1 cells, the “activation of ERK1/2” value is “no activation”. Moreover, the results for the JNK1/2 phosphorylation result in the data set with JNK1/2 in 22Rv1 cells (2 h) and with JNK1/2 in 22Rv1 cells (48 h) were “pronounced JNK1/2 phosphorylation” and “no phosphorylation (or even slight downregulation)”, respectively. Further, the colony-formation ability result with PC3, with VCaP and in the data set with 22Rv1 was “inhibit the colony-formation ability” in each case. In addition, in the data set on PC3-DR cells, the “cytotoxicity when co-treated with TQD” value was “increased”.
